Experimental data as given in ChEMBL document CHEMBL1201862, “PubChem BioAssay data set” (2004).
Several values for one entry are separate records, joined by “and”; a condition that tells them apart may be missing. Identical values can stand only once.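 Values below derive from 48-hour exposures of cells grown in 96-well plates, with endpoints linearly interpolated between the two concentrations bracketing the appropriate inhibition level. At the GI50, growth is halved.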 Activity calls are given as the source filed them. No stated cut-off is given here; in the data, active = GI50 up to about 1.1 µM and inactive = higher.

How the values were obtained:
Experiment in all cases: NCI-60 cell line screen, 48 h
K562 = test system: K562
U-251 = test system: U-251
SNB-75 = test system: SNB-75
Hs-578T = test system: Hs-578T
RXF 393 = test system: RXF 393
RPMI-8226 = test system: RPMI-8226
ACHN = test system: ACHN
HL-60 = test system: HL-60
DU-145 = test system: DU-145
LOX IMVI = test system: LOX IMVI
SR = test system: SR
OVCAR-3 = test system: OVCAR-3
MOLT-4 = test system: MOLT-4
SW-620 = test system: SW-620
SN12C = test system: SN12C
OVCAR-5 = test system: OVCAR-5
OVCAR-8 = test system: OVCAR-8
UACC-257 = test system: UACC-257
HOP-62 = test system: HOP-62
SF-295 = test system: SF-295
T47D = test system: T47D
SF-268 = test system: SF-268
SK-MEL-5 = test system: SK-MEL-5
UO-31 = test system: UO-31
PC-3 = test system: PC-3
MCF7 = test system: MCF7
NCI-H23 = test system: NCI-H23
M14 = test system: M14
NCI-H522 = test system: NCI-H522
786-0 = test system: 786-0
NCI/ADR-RES = test system: NCI/ADR-RES
OVCAR-4 = test system: OVCAR-4
CCRF-CEM = test system: CCRF-CEM
SK-MEL-28 = test system: SK-MEL-28
HOP-92 = test system: HOP-92
EKVX = test system: EKVX
HCT-15 = test system: HCT-15
IGROV-1 = test system: IGROV-1
KM12 = test system: KM12
HCT-116 = test system: HCT-116
A549 = test system: A549
NCI-H460 = test system: NCI-H460
HT-29 = test system: HT-29
BT-549 = test system: BT-549
NCI-H226 = test system: NCI-H226
UACC-62 = test system: UACC-62
CAKI-1 = test system: CAKI-1
MDA-MB-231 = test system: MDA-MB-231
Malme-3M = test system: Malme-3M
SK-MEL-2 = test system: SK-MEL-2
MDA-N = test system: MDA-N
COLO 205 = test system: COLO 205
TK-10 = test system: TK-10
SNB-19 = test system: SNB-19
SK-OV-3 = test system: SK-OV-3
SF-539 = test system: SF-539
MDA-MB-435 = test system: MDA-MB-435
A498 = test system: A498
HCC 2998 = test system: HCC 2998

With Cc1ccc(-c2nc(-c3nccc4ccccc34)oc2-c2ccccc2)cc1 the GI50 (K562) was 55.1 µM (inactive), the GI50 (U-251) was 72.9 µM (inactive) and the GI50 (SNB-75) was 31.6 µM (inactive). The GI50 (Hs-578T) was 75 µM (inactive), the GI50 (RXF 393) was 33.4 µM (inactive) and the GI50 (RPMI-8226) was 38.4 µM (inactive). For the same compound, the GI50 (ACHN) was 92.9 µM (inactive), the GI50 (HL-60) was > 100 µM (inactive) and the GI50 (DU-145) was 63.2 µM (inactive). For the same compound, the GI50 (LOX IMVI) was 20.3 µM (inactive), the GI50 (SR) was 25.8 µM (inactive) and the GI50 (OVCAR-3) was 56.1 µM (inactive). For the same compound, the GI50 (MOLT-4) was 25.2 µM (inactive), the GI50 (SW-620) was 88.3 µM (inactive) and the GI50 (SN12C) was 24.8 µM (inactive). For the same compound, the GI50 (OVCAR-5) was > 100 µM (inactive), the GI50 (OVCAR-8) was 79.1 µM (inactive) and the GI50 (UACC-257) was 85.3 µM (inactive). For the same compound, the GI50 (HOP-62) was > 100 µM (inactive), the GI50 (SF-295) was 68.4 µM (inactive) and the GI50 (T47D) was 68.2 µM (inactive). The GI50 (SF-268) was 73.5 µM (inactive), the GI50 (SK-MEL-5) was 28.1 µM (inactive) and the GI50 (UO-31) was 95.9 µM (inactive). For the same compound, the GI50 (PC-3) was > 100 µM (inactive), the GI50 (MCF7) was 27.9 µM (inactive) and the GI50 (NCI-H23) was > 100 µM (inactive). The GI50 (M14) was 24.9 µM (inactive), the GI50 (NCI-H522) was 43 µM (inactive) and the GI50 (786-0) was 26.6 µM (inactive). The GI50 (NCI/ADR-RES) was 98.2 µM (inactive), the GI50 (OVCAR-4) was > 100 µM (inactive) and the GI50 (CCRF-CEM) was 84.1 µM (inactive). For the same compound, the GI50 (SK-MEL-28) was > 100 µM (inactive), the GI50 (HOP-92) was 30.3 µM (inactive) and the GI50 (EKVX) was 20.6 µM (inactive). For the same compound, the GI50 (HCT-15) was 22.9 µM, the GI50 (IGROV-1) was > 100 µM (inactive) and the GI50 (KM12) was 43.1 µM (inactive). The GI50 (HCT-116) was 20.2 µM (inactive), the GI50 (A549) was 40.6 µM (inactive) and the GI50 (NCI-H460) was 26.7 µM (inactive). For the same compound, the GI50 (HT-29) was 5.64 µM (inactive), the GI50 (BT-549) was > 100 µM (inactive) and the GI50 (NCI-H226) was > 100 µM (inactive). For the same compound, the GI50 (UACC-62) was 46.6 µM (inactive), the GI50 (CAKI-1) was 43.3 µM (inactive) and the GI50 (MDA-MB-231) was > 100 µM (inactive). The GI50 (Malme-3M) was 96.4 µM (inactive), the GI50 (SK-MEL-2) was 51.9 µM (inactive) and the GI50 (MDA-N) was 38.7 µM (inactive). The GI50 (COLO 205) was 42.9 µM (inactive), the GI50 (TK-10) was 66.8 µM (inactive) and the GI50 (SNB-19) was > 100 µM (inactive). The GI50 (SK-OV-3) was 68.9 µM (inactive), the GI50 (SF-539) was 46 µM (inactive) and the GI50 (MDA-MB-435) was 64.9 µM (inactive). For the same compound, the GI50 (A498) was 30.5 µM (inactive).
Cc1nc2c(Br)cc(Br)cc2c(=O)n1-c1ccccc1NC1OC(CO)C(O)C(O)C1O (stereo not given) was tested, and the GI50 (HCC 2998) was > 100 µM (inactive), the GI50 (K562) was > 100 µM (inactive) and the GI50 (U-251) was > 100 µM (inactive). For the same compound, the GI50 (SNB-75) was 61.1 µM (inactive), the GI50 (Hs-578T) was > 100 µM (inactive) and the GI50 (RXF 393) was > 100 µM (inactive). The GI50 (RPMI-8226) was > 100 µM (inactive), the GI50 (ACHN) was > 100 µM (inactive) and the GI50 (HL-60) was > 100 µM (inactive). For the same compound, the GI50 (DU-145) was > 100 µM (inactive), the GI50 (LOX IMVI) was > 100 µM (inactive) and the GI50 (OVCAR-3) was > 100 µM (inactive). The GI50 (MOLT-4) was > 100 µM (inactive) and 79.1 µM (inactive), the GI50 (SW-620) was > 100 µM (inactive) and the GI50 (SN12C) was > 100 µM (inactive). The GI50 (OVCAR-5) was > 100 µM (inactive), the GI50 (OVCAR-8) was > 100 µM (inactive) and the GI50 (UACC-257) was > 100 µM (inactive). The GI50 (HOP-62) was > 100 µM (inactive), the GI50 (SF-295) was > 100 µM (inactive) and the GI50 (T47D) was > 100 µM (inactive). The GI50 (SF-268) was > 100 µM (inactive), the GI50 (SK-MEL-5) was > 100 µM (inactive) and the GI50 (UO-31) was > 100 µM (inactive). For the same compound, the GI50 (PC-3) was > 100 µM (inactive), the GI50 (MCF7) was > 100 µM (inactive) and the GI50 (NCI-H23) was > 100 µM (inactive). The GI50 (M14) was > 100 µM (inactive), the GI50 (NCI-H522) was > 100 µM (inactive) and the GI50 (786-0) was > 100 µM (inactive). For the same compound, the GI50 (NCI/ADR-RES) was > 100 µM (inactive), the GI50 (OVCAR-4) was > 100 µM (inactive) and the GI50 (CCRF-CEM) was > 100 µM (inactive). For the same compound, the GI50 (SK-MEL-28) was > 100 µM (inactive), the GI50 (HOP-92) was > 100 µM (inactive) and the GI50 (EKVX) was > 100 µM (inactive). The GI50 (HCT-15) was greater than 100 µM, the GI50 (IGROV-1) was > 100 µM (inactive) and the GI50 (KM12) was > 100 µM (inactive). For the same compound, the GI50 (HCT-116) was > 100 µM (inactive), the GI50 (NCI-H460) was > 100 µM (inactive) and the GI50 (HT-29) was > 100 µM (inactive). For the same compound, the GI50 (BT-549) was > 100 µM (inactive), the GI50 (NCI-H226) was > 100 µM (inactive) and the GI50 (UACC-62) was > 100 µM (inactive). For the same compound, the GI50 (CAKI-1) was > 100 µM (inactive), the GI50 (MDA-MB-231) was > 100 µM (inactive) and the GI50 (Malme-3M) was > 100 µM (inactive). For the same compound, the GI50 (SK-MEL-2) was > 100 µM (inactive), the GI50 (MDA-N) was > 100 µM (inactive) and the GI50 (COLO 205) was > 100 µM (inactive). The GI50 (TK-10) was > 100 µM (inactive), the GI50 (SNB-19) was > 100 µM (inactive) and the GI50 (SK-OV-3) was > 100 µM (inactive). For the same compound, the GI50 (SF-539) was > 100 µM (inactive), the GI50 (MDA-MB-435) was > 100 µM (inactive) and the GI50 (A498) was > 100 µM (inactive).
